Source: patent publication US20260365670A1, “EGFR INHIBITORS AND USES THEREOF” (DIZAL (JIANGSU) PHARMACEUTICAL CO., LTD., priority 2022, published 2026)
Where two headings read alike, the source gives them in different places.

Legend:
EGFR wild type = target: T1, EGFR wild type (Homo sapiens, UniProt P00533); assay: Inhibition of EGFR wild type biochemical enzymatic activity (HTRF); conditions: EGFR wild type, 1 mM ATP, 1 h at room temperature, read-out: IC50 @WT
T1 construct: purchased Carna Bio
Method in brief: (§1)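 1 mM ATP, 1 μM biotin-TK peptide, 5 mM MgCl2, 1 mM MnCl2, 0.01% CHAPS, 1 mM DTT, 0.5% DMSO; 1 h RT; EDTA stop; HTRF 665/615 nm; IC50 via 4PL.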

EGFR (C797S L858R) = target: T2, EGFR (C797S L858R) (Homo sapiens, UniProt P00533, C797S/L858R); assay: Inhibition of EGFR (C797S L858R) biochemical enzymatic activity (HTRF); conditions: EGFR (C797S L858R), 1 mM ATP, 1 h at room temperature, read-out: IC50 @L858-C797S
T2 construct: purchased signalchem
Method in brief: as §1

EGFR Exon19Del = target: T3, EGFR Exon19Del (Homo sapiens, UniProt P00533, DEL746-750); assay: Inhibition of EGFR Exon19Del biochemical enzymatic activity (HTRF); conditions: EGFR Exon19Del, 1 mM ATP, 1 h at room temperature, read-out: IC50 @Del19
T3 construct: purchased Carna Bio
Method in brief: as §1

EGFR L858R/T790M = target: T4, EGFR L858R/T790M (Homo sapiens, UniProt P00533, L858R/T790M); assay: Inhibition of EGFR L858R/T790M biochemical enzymatic activity (HTRF); conditions: EGFR L858R/T790M, 1 mM ATP, 1 h at room temperature, read-out: IC50 @L858R-T790M
T4 construct: purchased Carna Bio
Method in brief: as §1

EGFR Exon19Del/T790M = target: T5, EGFR Exon19Del/T790M (Homo sapiens, UniProt P00533, DEL746-750/T790M); assay: Inhibition of EGFR Exon19Del/T790M biochemical enzymatic activity (HTRF); conditions: EGFR Exon19Del/T790M, 1 mM ATP, 1 h at room temperature, read-out: IC50 @Del19-T790M
T5 construct: purchased Carna Bio
Method in brief: as §1

EGFR (d746-750 C797S) = target: T6, EGFR (d746-750 C797S) (Homo sapiens, UniProt P00533, C797S/DEL746-750); assay: Inhibition of EGFR (d746-750 C797S) biochemical enzymatic activity (HTRF); conditions: EGFR (d746-750 C797S), 1 mM ATP, 1 h at room temperature, read-out: IC50 @Del19-C797S
T6 construct: purchased signalchem
Method in brief: as §1

[1] = tested on: Ba/F3 cells expressing EGFR mutations; assay: Cell proliferation assay, Ba/F3 cells expressing EGFR mutations (CellTiter-Glo, 72 hours); type: cell-based
Method in brief: (§2)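 Ba/F3 cells (5000/well) and PC-9 cells (500/well, RPMI1640 with 10% FBS) were plated overnight and then dosed with a compound concentration series. Viable cells were read at day 0 (G0) and after treatment (G3). GI50 came from curve fits of G0-corrected proliferation relative to DMSO.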

PC-9 = assay: Cell proliferation assay, PC-9 cells (CellTiter-Glo, 72 hours); type: cell-based; conditions: PC9 cells, read-out: GI50 PC9
Method in brief: as §2

A-431 = assay: Cell proliferation assay, A-431 cells (GI50, Table 6); type: cell-based
Description: [Worded in the source for another cell line; this cell line is reported under the same test.] Ba/F3 cells expressing EGFR mutations were seeded in 384-well plates at 5000 cells/well in RPMI1640 medium containing […]. PC-9 at 500 cells/well was seeded into 384-well plates in RPMI1640 medium with 10% FBS. After overnight incubation, the assay plates were dosed with compounds at a series of concentrations. Alongside dosing the assay plates, the day 0 plate was processed using CellTiter-Glo® Luminescent Cell Viability Assay (Promega) to measure the number of viable cells (G0). The assay plates were further incubated for 72 hours and the number of viable cells (G3) was measured. The percentage of proliferation was calculated as: […]=100×(G3 value of sample well−G0 value)/(G3 value of DMSO control−G0 value). The concentration of compound producing 50% proliferation inhibition (GI50) was further calculated in best-fit curves using XLFit software. N/A=not available.

[2] = target: T7, EGFR[T790M/C797S/d746-750] (Homo sapiens, UniProt P00533, C797S/DEL746-750/T790M); assay: Inhibition of EGFR[T790M/C797S/d746-750] biochemical enzymatic activity (HTRF); conditions: EGFR[T790M/C797S/d746-750], 1 mM ATP, 1 h at room temperature, read-out: IC50 @T790M - C797S - Del19
T7 construct: purchased Carna Bio
Method in brief: as §1

EGFR[T790M/C797S/L858R] = target: T8, EGFR[T790M/C797S/L858R] (Homo sapiens, UniProt P00533, C797S/L858R/T790M); assay: Inhibition of EGFR[T790M/C797S/L858R] biochemical enzymatic activity (HTRF); conditions: EGFR[T790M/C797S/L858R], 1 mM ATP, 1 h at room temperature, read-out: IC50 @T790M- C797S - L858R
T8 construct: purchased Carna Bio
Method in brief: as §1

EGFR L858R = target: T9, EGFR L858R (Homo sapiens, UniProt P00533, L858R); assay: Inhibition of EGFR L858R biochemical enzymatic activity (HTRF); conditions: 1 mM ATP, 1 h at room temperature, read-out: IC50 @L858R
T9 construct: purchased Carna Bio
Method in brief: as §1

T5 sequence (P00533 with tags, fused parts or gaps DEL746-750/T790M limits assumed): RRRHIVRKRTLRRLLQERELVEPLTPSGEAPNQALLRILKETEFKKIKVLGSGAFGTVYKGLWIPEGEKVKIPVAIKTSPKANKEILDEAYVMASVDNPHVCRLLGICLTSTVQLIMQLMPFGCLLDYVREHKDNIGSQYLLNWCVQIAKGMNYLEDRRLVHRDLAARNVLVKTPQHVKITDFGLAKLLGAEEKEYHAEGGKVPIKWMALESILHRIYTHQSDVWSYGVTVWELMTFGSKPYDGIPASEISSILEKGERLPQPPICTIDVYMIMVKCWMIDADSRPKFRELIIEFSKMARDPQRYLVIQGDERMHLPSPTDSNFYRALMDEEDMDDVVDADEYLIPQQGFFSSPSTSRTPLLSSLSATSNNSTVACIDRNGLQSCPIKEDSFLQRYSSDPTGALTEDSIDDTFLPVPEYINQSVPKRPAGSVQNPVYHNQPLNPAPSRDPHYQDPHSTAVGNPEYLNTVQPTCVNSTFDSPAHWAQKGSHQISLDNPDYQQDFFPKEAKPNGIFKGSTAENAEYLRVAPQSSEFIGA
T7 sequence (P00533 with tags, fused parts or gaps DEL746-750/T790M/C797S limits assumed): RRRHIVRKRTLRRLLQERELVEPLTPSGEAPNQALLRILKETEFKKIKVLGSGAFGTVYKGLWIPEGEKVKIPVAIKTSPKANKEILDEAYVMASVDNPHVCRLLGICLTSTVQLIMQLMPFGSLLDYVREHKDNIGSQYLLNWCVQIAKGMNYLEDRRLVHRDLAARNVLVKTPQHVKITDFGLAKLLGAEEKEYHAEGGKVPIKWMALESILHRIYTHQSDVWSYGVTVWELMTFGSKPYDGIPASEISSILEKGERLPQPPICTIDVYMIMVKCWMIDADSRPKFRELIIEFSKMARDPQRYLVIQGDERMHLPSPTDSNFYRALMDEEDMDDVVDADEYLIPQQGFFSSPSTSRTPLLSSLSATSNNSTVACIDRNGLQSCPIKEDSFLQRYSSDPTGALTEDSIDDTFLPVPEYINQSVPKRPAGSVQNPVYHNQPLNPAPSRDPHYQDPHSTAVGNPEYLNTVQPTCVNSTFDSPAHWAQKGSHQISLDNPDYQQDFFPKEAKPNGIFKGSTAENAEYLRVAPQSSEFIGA
T9 sequence (P00533 25-1210 L858R): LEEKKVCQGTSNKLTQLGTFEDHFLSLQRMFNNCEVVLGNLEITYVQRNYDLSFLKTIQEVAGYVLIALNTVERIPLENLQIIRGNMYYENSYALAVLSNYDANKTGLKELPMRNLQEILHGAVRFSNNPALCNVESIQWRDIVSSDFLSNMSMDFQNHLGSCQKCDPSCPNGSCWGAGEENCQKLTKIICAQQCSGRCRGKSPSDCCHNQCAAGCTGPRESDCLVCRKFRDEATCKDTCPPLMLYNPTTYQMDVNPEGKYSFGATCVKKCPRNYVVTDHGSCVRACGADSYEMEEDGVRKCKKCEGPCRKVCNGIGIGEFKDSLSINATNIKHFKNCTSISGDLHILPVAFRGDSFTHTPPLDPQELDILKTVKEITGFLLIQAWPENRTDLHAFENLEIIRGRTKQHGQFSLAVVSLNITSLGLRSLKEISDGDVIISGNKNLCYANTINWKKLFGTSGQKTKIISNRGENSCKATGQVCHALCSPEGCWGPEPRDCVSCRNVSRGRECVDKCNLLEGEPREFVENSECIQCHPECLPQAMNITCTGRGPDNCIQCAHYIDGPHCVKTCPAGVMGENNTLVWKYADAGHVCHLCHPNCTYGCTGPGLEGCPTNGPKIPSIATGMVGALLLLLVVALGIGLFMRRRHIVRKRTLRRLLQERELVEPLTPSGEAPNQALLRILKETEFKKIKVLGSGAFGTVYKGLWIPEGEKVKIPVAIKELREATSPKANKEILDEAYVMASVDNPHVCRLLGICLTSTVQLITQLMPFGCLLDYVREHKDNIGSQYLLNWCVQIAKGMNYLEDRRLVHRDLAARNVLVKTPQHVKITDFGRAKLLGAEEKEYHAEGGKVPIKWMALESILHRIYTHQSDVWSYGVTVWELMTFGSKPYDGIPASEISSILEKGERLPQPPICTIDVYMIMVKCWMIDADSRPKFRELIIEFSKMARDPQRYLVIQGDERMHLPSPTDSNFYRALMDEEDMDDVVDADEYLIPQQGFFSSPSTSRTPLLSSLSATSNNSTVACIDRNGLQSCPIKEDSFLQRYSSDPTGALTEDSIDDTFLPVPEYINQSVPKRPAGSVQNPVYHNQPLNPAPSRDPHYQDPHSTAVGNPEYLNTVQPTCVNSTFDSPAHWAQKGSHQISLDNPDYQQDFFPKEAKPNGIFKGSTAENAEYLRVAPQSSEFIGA
T1 sequence (P00533 25-1210): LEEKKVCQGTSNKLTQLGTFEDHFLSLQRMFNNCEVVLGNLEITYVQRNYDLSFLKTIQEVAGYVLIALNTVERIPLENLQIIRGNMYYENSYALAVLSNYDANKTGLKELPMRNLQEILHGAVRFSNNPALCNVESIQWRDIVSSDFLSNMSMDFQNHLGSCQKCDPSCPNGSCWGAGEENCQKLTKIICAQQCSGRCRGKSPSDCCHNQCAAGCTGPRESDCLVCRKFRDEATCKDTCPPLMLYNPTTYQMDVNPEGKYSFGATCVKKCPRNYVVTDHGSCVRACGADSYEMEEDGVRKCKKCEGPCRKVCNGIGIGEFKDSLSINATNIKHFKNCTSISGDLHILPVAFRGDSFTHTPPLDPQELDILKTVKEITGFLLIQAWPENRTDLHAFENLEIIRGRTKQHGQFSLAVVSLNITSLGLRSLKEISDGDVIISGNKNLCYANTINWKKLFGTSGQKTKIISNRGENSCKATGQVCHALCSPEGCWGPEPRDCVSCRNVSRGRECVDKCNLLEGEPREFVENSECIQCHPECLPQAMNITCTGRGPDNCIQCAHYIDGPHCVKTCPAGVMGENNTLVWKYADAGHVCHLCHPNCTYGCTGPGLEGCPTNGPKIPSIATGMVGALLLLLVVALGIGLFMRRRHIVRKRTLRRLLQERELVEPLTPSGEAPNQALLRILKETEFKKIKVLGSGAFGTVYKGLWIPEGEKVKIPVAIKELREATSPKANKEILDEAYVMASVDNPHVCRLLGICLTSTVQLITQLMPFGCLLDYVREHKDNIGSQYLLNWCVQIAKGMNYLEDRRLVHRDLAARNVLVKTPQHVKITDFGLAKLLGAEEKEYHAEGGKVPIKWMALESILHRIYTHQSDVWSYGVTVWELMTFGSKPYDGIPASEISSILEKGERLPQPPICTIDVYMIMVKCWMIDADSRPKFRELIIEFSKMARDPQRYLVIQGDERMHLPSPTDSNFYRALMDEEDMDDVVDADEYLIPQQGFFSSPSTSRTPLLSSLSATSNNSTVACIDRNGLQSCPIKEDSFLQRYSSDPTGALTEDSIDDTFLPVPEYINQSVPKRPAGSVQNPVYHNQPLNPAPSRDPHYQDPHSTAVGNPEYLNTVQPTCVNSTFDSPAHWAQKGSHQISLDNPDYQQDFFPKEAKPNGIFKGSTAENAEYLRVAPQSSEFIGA
T4 sequence (P00533 25-1210 T790M/L858R): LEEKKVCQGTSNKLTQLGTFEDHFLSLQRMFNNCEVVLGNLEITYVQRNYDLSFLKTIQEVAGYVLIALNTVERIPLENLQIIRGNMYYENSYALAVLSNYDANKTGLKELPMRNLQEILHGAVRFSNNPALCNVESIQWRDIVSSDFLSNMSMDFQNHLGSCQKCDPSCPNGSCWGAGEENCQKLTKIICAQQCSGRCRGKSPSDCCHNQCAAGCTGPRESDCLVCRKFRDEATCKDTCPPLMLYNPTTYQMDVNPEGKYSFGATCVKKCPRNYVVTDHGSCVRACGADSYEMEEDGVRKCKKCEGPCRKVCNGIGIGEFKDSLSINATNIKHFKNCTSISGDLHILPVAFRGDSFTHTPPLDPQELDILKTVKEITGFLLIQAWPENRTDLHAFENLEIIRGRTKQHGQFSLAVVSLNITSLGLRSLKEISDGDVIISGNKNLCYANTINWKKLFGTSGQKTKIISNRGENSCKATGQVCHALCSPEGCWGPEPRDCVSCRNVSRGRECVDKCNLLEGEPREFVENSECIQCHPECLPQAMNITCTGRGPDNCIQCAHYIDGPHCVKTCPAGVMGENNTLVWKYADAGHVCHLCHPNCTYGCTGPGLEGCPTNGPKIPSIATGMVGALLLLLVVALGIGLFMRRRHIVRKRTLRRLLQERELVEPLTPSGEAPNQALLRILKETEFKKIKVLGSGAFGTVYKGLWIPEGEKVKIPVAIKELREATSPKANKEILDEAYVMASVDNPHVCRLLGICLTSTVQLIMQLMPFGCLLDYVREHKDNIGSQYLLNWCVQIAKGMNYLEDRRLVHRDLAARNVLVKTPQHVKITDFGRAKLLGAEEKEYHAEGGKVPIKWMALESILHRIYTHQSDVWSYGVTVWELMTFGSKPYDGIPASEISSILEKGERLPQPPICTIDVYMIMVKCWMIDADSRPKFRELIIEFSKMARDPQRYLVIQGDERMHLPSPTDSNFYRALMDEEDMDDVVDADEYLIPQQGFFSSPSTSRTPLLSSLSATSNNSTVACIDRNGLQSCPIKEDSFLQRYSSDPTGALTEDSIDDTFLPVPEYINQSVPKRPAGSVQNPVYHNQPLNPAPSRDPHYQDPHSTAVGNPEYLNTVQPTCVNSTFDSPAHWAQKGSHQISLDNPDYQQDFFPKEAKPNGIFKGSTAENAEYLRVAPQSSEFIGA

| Structure (SMILES) | IC50 (EGFR wild type) [µM] | IC50 (EGFR (C797S L858R)) [µM] | IC50 (EGFR Exon19Del) [µM] | IC50 (EGFR L858R/T790M) [µM] | IC50 (EGFR Exon19Del/T790M) [µM] | IC50 (EGFR (d746-750 C797S)) [µM] | IC50 [2] [µM] | IC50 (EGFR[T790M/C797S/L858R]) [µM] | IC50 (EGFR L858R) [µM] | further results |
| --- | --- | --- | --- | --- | --- | --- | --- | --- | --- | --- |
| COCCN(C)c1ccc2nc3n(c2c1)C12CCC(CN(CCOc4c(cnn4C)-c4cc(cc(C)n4)C(=O)N3)C1)C2 (single isomer, unassigned) [Example B46B] | > 5 | 0.117 | 0.028 | 0.012 | 0.0072 | 0.0075 | 0.0037 | 0.0047 | 0.377 | GI50 ([1]; BaF3 cells, EGFR DEL19 - C797S, read-out: GI50 DEL19 - C797S/BaF3): 0.002 µM; GI50 ([1]; BaF3 cells, EGFR DEL19 - T790-C797S, read-out: GI50 DEL19 - T790-C797S/BaF3): 0.002 µM; GI50 ([1]; BaF3 cells, EGFR L858R - T790-C797S, read-out: GI50 L858R - T790-C797S/BaF3): 0.002 µM; GI50 ([1]; BaF3 cells, EGFR L858R, read-out: GI50 L858R/BaF3): 0.036 µM; GI50 ([1]; EGFR DEL19 - T790M, read-out: GI50 DEL19 - T790M): 0.002 µM; GI50 (PC-9): 0.025 µM; GI50 (A-431; A-431 cells): 1.36 µM |
| Cc1cc2cc(n1)-c1cnn(C)c1OCCN1CC3CCC(C3)(C1)n1c(nc3ccccc31)NC2=O (single isomer, unassigned) [Example B8A, 15,21-dimethyl-23-oxa-2,9,11,16,20,21,26-heptaazaheptacyclo[24.4.1.1^{1,28}.1^{13,17}.0^{2,10}.0^{3,8}.0^{18,22}]tritriaconta-3,5,7,9,13,15,17(33),18(22),19-nonaen-12-one] | > 5 | > 5 | 0.729 | > 5 | 4 | 0.659 | 3.99 | > 5 | > 5 | GI50 ([1]; Mus musculus, BaF3, 72 h, BaF3 cells, EGFR DEL19 - C797S, read-out: GI50 DEL19 - C797S/BaF3): 0.62 µM; GI50 ([1]; Mus musculus, BaF3, 72 h, BaF3 cells, EGFR DEL19 - T790-C797S, read-out: GI50 DEL19 - T790-C797S/BaF3): 0.251 µM; GI50 ([1]; Mus musculus, BaF3, 72 h, BaF3 cells, EGFR L858R - C797S, read-out: GI50 L858R - C797S/BaF3): 2.12 µM; GI50 ([1]; Mus musculus, BaF3, 72 h, BaF3 cells, EGFR L858R - T790-C797S, read-out: GI50 L858R - T790-C797S/BaF3): 0.29 µM; GI50 ([1]; Mus musculus, BaF3, 72 h, BaF3 cells, EGFR L858R - T790M, read-out: GI50 L858R - T790M/BaF3): 1.17 µM; GI50 ([1]; Mus musculus, BaF3, 72 h, BaF3 cells, EGFR L858R, read-out: GI50 L858R/BaF3): 3.56 µM; GI50 ([1]; Mus musculus, BaF3, 72 h, EGFR DEL19 - T790M, read-out: GI50 DEL19 - T790M): 0.298 µM; GI50 (PC-9; Homo sapiens, PC-9, 72 h): 2.85 µM; GI50 (A-431; Homo sapiens, A-431, A-431 cells): 6.39 µM |
